The text below walks through data of ChEMBL document CHEMBL1201862, “PubChem BioAssay data set” (2004).

The structures appear in SMILES notation. Active and inactive are the calls of the source.

The target of assay [1] is Peroxisome proliferator-activated receptor gamma/Nuclear receptor coactivator 3 (Homo sapiens, UniProt P37231). Format: functional.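 Note: agonist potency for raising coactivator recruitment to the receptor.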
Assay [2] has as its target Photoreceptor-specific nuclear receptor (Homo sapiens, UniProt Q9Y5X4). Kind of assay: NR2E3 inverse agonists, dose response, biochemical, TR-FRET (AID 463256). Format: functional.
Assay [3] concerns the target Peroxisome proliferator-activated receptor gamma/Nuclear receptor corepressor 2 (Homo sapiens, UniProt P37231+Q9Y618). The experiment in a line: Counterscreen for NR2E3 inverse agonists: TR-FRET-based biochemical high throughput dose response assay to identify inverse agonists of the interaction between peroxisome proliferator-activated receptor gamma (PPARg) and nuclear receptor co-repressor 2 (NCOR2). Format: functional.

Assay [4] addresses Peroxisome proliferator-activated receptor gamma/Nuclear receptor coactivator 2 (Homo sapiens, UniProt P37231). Format: functional.
In assay [5] the target is Peroxisome proliferator-activated receptor gamma/Nuclear receptor coactivator 1 (Homo sapiens, UniProt P37231). Format: functional.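 Note: agonist potency as compounds enhance coactivator SRC-1 recruitment to PPARgamma.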
Assay [6] addresses T1, Sphingosine 1-phosphate receptor 2 (Homo sapiens, UniProt O95136). Kind of assay: Dose Response Cell Based Assay for Agonists of the S1P2 Receptor of Purchased Analogues. [Related pubchem assays: 729, 843, 854, 736 ]. Format: functional.
The nature of assay [7]: enhancers of respiration in Yfh1-depleted yeast, dose response, Friedreich's ataxia, plus single-dose screen (AID 1465).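 Note: yeast depleted of Yfh1p frataxin homolog grown on glycerol needing respiration; WST-1 tetrazolium dye reduction as measure of cellular dehydrogenase metabolic activity.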 Format: functional.
For assay [8], the target named is T2, Neuropeptide Y receptor type 1 (Homo sapiens, UniProt P25929). Format: functional.
T2 sequence (P25929 whole entry): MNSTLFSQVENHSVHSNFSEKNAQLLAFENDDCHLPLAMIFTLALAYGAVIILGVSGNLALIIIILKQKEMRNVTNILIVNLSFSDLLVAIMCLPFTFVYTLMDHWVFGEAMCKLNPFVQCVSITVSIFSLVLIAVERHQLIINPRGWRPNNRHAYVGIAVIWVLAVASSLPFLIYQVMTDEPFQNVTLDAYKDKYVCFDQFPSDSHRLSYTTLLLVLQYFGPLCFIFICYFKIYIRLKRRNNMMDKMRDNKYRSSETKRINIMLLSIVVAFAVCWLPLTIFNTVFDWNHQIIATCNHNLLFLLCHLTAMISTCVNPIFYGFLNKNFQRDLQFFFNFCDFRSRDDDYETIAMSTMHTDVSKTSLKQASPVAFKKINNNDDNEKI
Assay [9] deals with T3, Neuropeptide Y receptor type 2 (Homo sapiens, UniProt P49146). Format: functional, cell-based.
T3 sequence (P49146 whole entry): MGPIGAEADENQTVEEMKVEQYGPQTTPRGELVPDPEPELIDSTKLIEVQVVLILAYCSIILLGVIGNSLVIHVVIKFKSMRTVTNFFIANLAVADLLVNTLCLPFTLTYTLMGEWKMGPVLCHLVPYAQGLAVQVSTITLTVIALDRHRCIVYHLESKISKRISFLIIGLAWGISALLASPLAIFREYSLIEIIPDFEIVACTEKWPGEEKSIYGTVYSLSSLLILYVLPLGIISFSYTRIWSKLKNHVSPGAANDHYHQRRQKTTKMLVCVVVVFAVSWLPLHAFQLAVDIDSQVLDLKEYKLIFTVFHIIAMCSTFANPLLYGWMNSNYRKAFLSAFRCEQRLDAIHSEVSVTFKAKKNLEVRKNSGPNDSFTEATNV
A short description of assay [10]: cytotoxicity in HEK-293T cells, dose response, cytotoxicity control for TCR NF-kB inhibitor project, luminescence, T-cell screen hits (AID 489026).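 Note: cells exposed to compound about 14 hours before the viability readout.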 Format: functional, cell-based.
The target in a further assay is NADPH oxidase 1 (Homo sapiens, UniProt Q9Y5S8). The experiment in a line: Late-stage luminescence-based cell-based dose response assay to identify inhibitors of NADPH oxidase 1 (NOX1): Synthesized analogs 2. Format: functional.
Sequence of NADPH oxidase 1 (Q9Y5S8 whole entry): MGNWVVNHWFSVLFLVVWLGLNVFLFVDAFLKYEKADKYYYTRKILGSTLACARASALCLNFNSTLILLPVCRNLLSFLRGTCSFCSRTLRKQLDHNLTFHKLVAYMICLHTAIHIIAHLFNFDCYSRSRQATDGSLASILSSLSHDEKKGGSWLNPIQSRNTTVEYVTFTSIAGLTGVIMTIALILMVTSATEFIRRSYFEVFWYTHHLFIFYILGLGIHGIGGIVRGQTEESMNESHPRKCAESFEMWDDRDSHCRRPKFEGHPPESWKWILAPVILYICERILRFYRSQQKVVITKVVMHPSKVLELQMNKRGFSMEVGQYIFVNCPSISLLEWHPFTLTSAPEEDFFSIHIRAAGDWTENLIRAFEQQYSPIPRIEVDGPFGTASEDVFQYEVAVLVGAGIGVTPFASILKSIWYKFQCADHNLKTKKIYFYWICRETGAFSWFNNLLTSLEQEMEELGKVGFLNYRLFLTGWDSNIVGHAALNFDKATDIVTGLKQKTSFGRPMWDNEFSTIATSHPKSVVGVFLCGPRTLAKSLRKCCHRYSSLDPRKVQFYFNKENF
The nature of assay [11]: Luminescence Cell-Based Dose Retest to Confirm Inhibitors of Cancer Stem Cells. [Related pubchem assays (depositor defined):AID2717, AID2721]. Format: functional. Particulars: Homo sapiens.
Another assay deals with Vasopressin V1a receptor (Homo sapiens, UniProt P37288). Kind of assay: Fluorescence-based cell-based high throughput dose response screening assay for agonists of the vasopressin 1 receptor (V1R). Format: functional.
Sequence of Vasopressin V1a receptor (P37288 whole entry): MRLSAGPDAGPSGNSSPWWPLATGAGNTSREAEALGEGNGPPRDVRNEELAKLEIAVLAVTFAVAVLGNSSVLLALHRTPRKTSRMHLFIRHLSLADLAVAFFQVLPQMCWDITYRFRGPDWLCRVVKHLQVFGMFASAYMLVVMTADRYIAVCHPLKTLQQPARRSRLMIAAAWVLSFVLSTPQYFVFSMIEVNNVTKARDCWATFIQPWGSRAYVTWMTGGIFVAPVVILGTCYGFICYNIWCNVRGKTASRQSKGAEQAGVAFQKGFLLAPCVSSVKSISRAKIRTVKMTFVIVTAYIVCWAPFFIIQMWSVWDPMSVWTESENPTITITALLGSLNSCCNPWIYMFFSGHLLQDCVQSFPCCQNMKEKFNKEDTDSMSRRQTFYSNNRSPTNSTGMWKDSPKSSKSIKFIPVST
Another assay addresses Oxytocin receptor (Homo sapiens, UniProt P30559). Kind of assay: Counterscreen for vasopressin 1 receptor (V1R) agonists: Fluorescence-based cell-based high throughput dose response assay for agonists of the Oxytocin Receptor (OXTR). [Related pubchem assays: 2435 (Primary screen (OXTR agonists in singlicate)), 434964 (Confirmation screen (V1R agonists in triplicate)), 434969 (Counterscreen (OXTR agonists in …. Format: functional. A general note: A counterscreen serves to expose hits that act by an unwanted route or on another target.

A short description of assay [12]: P. falciparum late gametocyte killing, dose response, luminescence (AID 1117278).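 Note: gametocytes exposed to compound for 24 hours.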 Format: functional, cell-based.
A short description of assay [13]: Jurkat T cell cytotoxicity, dose response, cytotoxicity control for P. falciparum gametocyte viability project, luminescence (AID 1117277).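 Note: potency reflects loss of cellular ATP meaning fewer viable cells.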 Format: functional, cell-based.
Assay [14] addresses T2, Neuropeptide Y receptor type 1. The experiment in a line: NPY-Y1 receptor antagonist potency, dose response, cell-based (AID 1277). Format: functional.
Assay [15] deals with T3, Neuropeptide Y receptor type 2. Kind of assay: NPY-Y2 antagonist potency, selectivity check, dose response, counter-screen for NPY-Y1 antagonist project, cell-based (AID 1278). Format: functional.
Assay [16] in a line: M. tuberculosis growth inhibition, HTS (AID 449762). Format: functional.
The next assay has as its system INS1. The experiment in a line: beta cell apoptosis inhibitors, cytokine rescue, dose response, luminescence, retest (AID 449756).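 Note: cell death triggered by IL-1 beta plus TNF-alpha plus IFN-gamma mixture; protective hits raise ATP signal compared with cytokine alone wells.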 Format: functional, cell-based. Particulars: Rattus norvegicus.
Another assay has as its system Vero. The experiment in a line: host cell cytotoxicity of antiviral hits, dose response, cytotoxicity control for West Nile virus antiviral project, secondary assay (AID 1650). Format: functional. Particulars: Chlorocebus sabaeus.
Assay [17] concerns the target Aryl hydrocarbon receptor (Homo sapiens, UniProt P35869). Kind of assay: Luminescence-based cell-based high throughput dose response assay for activators of the Aryl Hydrocarbon Receptor (AHR). [Related pubchem assays: 2796 (Primary screen (AHR activators in singlicate)), 2845 (Confirmation screen (AHR activators in triplicate)), 434939 (Counterscreen (PXR activators in triplicate)), 2804 (Summary (AHR activators))]. Format: ADME.

Assay [18] is described as follows: Dose-response inhibition of insulin secretion in a rat insulinoma line at 5 mM glucose (AID 1117331). Format: functional, cell-based. Particulars: INS-1E.
A short description of assay [19]: TB: CFU replicating Measured in Microorganism System Using Imaging - 7108-05_Inhibitor_Dose_DryPowder_Activity_Set2. Format: functional.
In assay [20] the target is Sphingosine 1-phosphate receptor 3 (Homo sapiens, UniProt Q99500). Kind of assay: Late stage counterscreen assay for S1P4 antagonists: Fluorescence dose response cell-based screening assay for antagonists of the Sphingosine 1-Phosphate Receptor 3 (S1P3). [Related pubchem assays (depositor defined):AID1510, AID1524, AID1692, AID1853, AID2332, AID489009, AID489017]. Format: functional.
Sequence of Sphingosine 1-phosphate receptor 3 (Q99500 whole entry): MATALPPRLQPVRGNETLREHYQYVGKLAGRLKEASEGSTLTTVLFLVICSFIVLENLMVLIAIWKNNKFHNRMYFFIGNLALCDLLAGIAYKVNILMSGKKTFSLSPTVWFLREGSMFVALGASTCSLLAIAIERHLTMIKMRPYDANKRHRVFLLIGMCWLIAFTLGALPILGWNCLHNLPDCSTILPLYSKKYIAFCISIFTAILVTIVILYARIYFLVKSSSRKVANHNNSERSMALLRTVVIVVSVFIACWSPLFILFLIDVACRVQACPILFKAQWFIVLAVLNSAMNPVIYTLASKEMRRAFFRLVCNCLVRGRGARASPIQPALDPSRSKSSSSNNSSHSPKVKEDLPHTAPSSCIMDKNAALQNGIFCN

Assay [21] addresses T4, Sphingosine 1-phosphate receptor 1 (Homo sapiens, UniProt P21453). Kind of assay: Late stage counterscreen assay for S1P4 antagonists: Fluorescence dose response cell-based screening assay for antagonists of the Sphingosine 1-Phosphate Receptor 1 (S1P1). [Related pubchem assays (depositor defined):AID1510, AID1524, AID1692, AID1853, AID2332, AID489009, AID489017]. Format: functional.

Assay [22] has as its target T4, Sphingosine 1-phosphate receptor 1. Format: functional.
The target of assay [23] is T5, Sphingosine 1-phosphate receptor 4 (Homo sapiens, UniProt O95977).
T5 sequence (O95977 whole entry): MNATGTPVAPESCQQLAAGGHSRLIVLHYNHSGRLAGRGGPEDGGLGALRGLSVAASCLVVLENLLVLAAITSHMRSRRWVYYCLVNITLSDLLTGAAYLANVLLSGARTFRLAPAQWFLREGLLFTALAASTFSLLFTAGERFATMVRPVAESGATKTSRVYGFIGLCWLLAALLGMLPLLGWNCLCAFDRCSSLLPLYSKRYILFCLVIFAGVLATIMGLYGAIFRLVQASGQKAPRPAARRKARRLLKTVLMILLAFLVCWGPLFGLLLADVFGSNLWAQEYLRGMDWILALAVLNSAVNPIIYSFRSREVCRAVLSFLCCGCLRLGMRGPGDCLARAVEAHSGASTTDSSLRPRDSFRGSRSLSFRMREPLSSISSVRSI
Kind of assay: Fluorescence dose response cell-based high throughput screening assay for antagonists of the Sphingosine 1-Phosphate Receptor 4 (S1P4). [Related pubchem assays: 1524 (Confirmation in triplicates.), 1510 (Primary screen.)]. Format: functional.

For assay [24], the target named is T1, Sphingosine 1-phosphate receptor 2. Kind of assay: Late stage counterscreen assay for S1P4 antagonists: Fluorescence dose response cell-based screening assay for antagonists of the Sphingosine 1-Phosphate Receptor 2 (S1P2). [Related pubchem assays (depositor defined):AID1510, AID1524, AID1692, AID1853, AID2332, AID489009, AID489017]. Format: functional.
The target of assay [25] is T5, Sphingosine 1-phosphate receptor 4. Kind of assay: Late stage fluorescence dose response cell-based screening assay for antagonists of the Sphingosine 1-Phosphate Receptor 4 (S1P4). [Related pubchem assays: 1524 (Confirmation screen (S1P4 antagonists).), 1510 (Primary screen (S1P4 antagonists).), 1853 (Summary AID (S1P4 antagonists).), 1692 (Dose response screen (S1P4 antagonists).)]. Format: functional.

Assay [26] concerns the target Sphingosine 1-phosphate receptor 5 (Homo sapiens, UniProt Q9H228). Kind of assay: Late stage counterscreen assay for S1P4 antagonists: Fluorescence dose response cell-based screening assay for antagonists of the Sphingosine 1-Phosphate Receptor 5 (S1P5). [Related pubchem assays (depositor defined):AID1510, AID1524, AID1692, AID1853, AID2332, AID489009, AID489017]. Format: functional.

A further assay has as its target Ephrin type-A receptor 4 (Mus musculus, UniProt Q03137). Kind of assay: inhibitors of EphA4 binding to KYL peptide, primary screen, biochemical, colorimetric, mouse EphA4 (AID 689). Format: functional.
Assay [27] has as its target Solute carrier family 12 member 2/member 5 (Homo sapiens, UniProt P55011+Q9H2X9). Kind of assay: KCC2 and NKCC1 inhibition by rubidium flux, cell-based, NKCC1 counter-screen (AID 1734). Format: functional, HEK293.
In a further assay the target is T6, Leucine aminopeptidase (Plasmodium falciparum 3D7, UniProt Q8IL11).
T6 sequence (Q8IL11 whole entry): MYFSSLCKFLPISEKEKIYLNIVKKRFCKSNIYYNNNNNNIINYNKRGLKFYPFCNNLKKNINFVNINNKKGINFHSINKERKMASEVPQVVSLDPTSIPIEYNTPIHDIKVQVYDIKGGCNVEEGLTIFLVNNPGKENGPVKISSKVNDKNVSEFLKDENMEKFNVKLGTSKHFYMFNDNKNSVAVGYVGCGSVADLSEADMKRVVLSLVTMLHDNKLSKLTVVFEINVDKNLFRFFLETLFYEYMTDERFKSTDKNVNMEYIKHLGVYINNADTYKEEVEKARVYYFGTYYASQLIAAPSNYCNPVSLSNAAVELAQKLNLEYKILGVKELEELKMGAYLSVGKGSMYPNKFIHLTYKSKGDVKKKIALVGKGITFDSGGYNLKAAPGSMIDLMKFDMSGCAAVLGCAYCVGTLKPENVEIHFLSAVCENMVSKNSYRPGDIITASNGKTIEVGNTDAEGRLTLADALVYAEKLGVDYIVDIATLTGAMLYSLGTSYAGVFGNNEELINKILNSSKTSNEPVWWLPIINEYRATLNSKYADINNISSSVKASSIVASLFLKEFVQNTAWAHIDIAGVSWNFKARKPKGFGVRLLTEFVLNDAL
Kind of assay: P. falciparum M17LAP inhibitors, primary screen, biochemical, fluorogenic H-Leu-NHMec substrate, 1536-well (AID 1619). Format: functional.

A further assay deals with Transthyretin (Homo sapiens, UniProt P02766). The experiment in a line: Luminescence-based cell-based high throughput dose response assay to identify activators of Transthyretin (TTR) transcription. Format: functional.

T4 sequence (P21453 whole entry): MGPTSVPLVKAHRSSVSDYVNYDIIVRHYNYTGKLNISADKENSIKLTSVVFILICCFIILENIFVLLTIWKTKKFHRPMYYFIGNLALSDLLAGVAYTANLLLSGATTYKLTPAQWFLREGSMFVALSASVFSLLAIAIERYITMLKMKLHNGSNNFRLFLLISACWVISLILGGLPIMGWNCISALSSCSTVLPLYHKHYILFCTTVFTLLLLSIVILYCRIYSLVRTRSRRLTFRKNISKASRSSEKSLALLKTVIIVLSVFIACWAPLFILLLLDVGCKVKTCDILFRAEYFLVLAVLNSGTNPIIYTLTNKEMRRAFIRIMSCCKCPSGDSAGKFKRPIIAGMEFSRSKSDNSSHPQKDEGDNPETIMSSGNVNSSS
T1 sequence (O95136 whole entry): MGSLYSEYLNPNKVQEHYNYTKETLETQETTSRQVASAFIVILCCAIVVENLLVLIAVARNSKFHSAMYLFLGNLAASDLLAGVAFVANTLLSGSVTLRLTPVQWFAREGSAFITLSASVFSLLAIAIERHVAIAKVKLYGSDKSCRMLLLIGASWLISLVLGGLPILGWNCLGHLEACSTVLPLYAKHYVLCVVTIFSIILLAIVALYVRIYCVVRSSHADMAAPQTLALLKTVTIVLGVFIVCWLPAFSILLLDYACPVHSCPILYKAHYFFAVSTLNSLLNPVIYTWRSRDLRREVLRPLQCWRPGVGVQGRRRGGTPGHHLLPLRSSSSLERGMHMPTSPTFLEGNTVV
Sequence of Aryl hydrocarbon receptor (P35869 whole entry): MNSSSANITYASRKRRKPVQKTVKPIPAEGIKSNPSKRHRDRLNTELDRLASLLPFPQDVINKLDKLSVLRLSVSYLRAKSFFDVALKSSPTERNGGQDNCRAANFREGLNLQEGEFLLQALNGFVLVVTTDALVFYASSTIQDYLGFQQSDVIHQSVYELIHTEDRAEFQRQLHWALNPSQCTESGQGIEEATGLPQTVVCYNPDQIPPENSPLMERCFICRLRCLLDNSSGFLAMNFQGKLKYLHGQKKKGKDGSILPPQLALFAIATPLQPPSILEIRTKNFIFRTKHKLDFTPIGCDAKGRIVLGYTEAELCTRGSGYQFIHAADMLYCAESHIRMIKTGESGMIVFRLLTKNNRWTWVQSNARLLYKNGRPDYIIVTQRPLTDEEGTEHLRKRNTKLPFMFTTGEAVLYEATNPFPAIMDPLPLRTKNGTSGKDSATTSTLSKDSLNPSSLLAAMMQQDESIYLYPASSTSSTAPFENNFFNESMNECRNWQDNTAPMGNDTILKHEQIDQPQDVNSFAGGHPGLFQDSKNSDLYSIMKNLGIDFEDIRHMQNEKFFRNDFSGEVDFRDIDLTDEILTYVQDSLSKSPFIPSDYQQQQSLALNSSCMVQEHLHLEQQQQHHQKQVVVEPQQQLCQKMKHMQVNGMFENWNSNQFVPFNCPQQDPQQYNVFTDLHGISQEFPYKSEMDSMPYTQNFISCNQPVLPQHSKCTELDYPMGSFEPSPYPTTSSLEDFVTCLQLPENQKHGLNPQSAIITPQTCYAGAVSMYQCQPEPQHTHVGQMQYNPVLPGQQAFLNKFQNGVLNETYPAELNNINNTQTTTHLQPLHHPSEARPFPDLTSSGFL
Sequence of Photoreceptor-specific nuclear receptor (Q9Y5X4 whole entry): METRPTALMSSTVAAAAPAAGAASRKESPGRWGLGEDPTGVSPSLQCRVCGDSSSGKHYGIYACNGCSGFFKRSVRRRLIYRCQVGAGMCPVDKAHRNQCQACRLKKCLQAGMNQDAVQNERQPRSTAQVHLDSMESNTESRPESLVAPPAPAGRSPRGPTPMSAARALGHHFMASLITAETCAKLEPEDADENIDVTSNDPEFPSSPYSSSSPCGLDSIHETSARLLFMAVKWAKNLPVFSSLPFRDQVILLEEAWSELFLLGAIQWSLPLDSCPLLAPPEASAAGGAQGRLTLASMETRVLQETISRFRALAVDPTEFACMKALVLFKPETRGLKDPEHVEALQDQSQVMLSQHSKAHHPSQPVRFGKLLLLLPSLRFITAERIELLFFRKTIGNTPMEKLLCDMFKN
Sequence of Oxytocin receptor (P30559 whole entry): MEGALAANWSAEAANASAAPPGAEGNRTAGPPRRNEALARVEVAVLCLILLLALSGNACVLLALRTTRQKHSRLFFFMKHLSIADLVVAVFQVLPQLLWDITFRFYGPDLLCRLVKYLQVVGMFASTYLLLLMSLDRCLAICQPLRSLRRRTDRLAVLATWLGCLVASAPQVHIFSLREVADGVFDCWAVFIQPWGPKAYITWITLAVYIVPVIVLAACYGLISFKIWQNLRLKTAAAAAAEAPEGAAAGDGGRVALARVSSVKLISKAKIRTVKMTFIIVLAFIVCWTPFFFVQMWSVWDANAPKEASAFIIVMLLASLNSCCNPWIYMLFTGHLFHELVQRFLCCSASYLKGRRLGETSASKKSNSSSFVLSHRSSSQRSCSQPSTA
Sequence of Sphingosine 1-phosphate receptor 5 (Q9H228 whole entry): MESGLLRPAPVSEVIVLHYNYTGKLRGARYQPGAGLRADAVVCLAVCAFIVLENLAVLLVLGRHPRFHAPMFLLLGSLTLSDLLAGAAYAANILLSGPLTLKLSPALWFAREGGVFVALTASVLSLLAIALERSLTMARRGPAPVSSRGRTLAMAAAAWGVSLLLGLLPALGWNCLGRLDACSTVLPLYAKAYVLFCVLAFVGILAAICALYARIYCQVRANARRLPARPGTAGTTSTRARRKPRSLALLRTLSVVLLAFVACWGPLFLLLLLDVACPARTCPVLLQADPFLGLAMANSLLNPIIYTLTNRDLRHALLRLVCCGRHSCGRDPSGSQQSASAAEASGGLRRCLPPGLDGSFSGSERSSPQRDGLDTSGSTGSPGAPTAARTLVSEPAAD

What is called EC50 is the concentration giving half of the maximal effect. The term IC50 denotes the point on the concentration scale where inhibition reaches its midpoint. In the case of `Cc1cccc(NC(=O)c2sc3nc(-c4ccc(F)cc4)cn3c2C)n1`, the concentration for a half-maximal effect (EC50) in assay [1] was 22.5 µM (not active); in assay [4] it was 12.3 µM (not active); in [5], 16.8 µM (not active). In addition, the IC50 is 1.17 µM (active) in [2] and 1.18 µM (active) in assay [3].

`Cc1cc(C(=O)CN(C)CC(=O)N2CCCC2)c(C)n1Cc1ccccc1`: the EC50 in assay [6] was > 30 µM (not active).

As for `CCOC(=O)/C(=C\C=C1/Sc2ccccc2N1CC)C(C)=O`, the concentration giving a half-maximal response (EC50) in assay [7] is > 100 µM (active).

Take `COC(=O)c1ccccc1NC(=O)Cn1c(-c2nonc2N)nc2ccccc21`: the IC50 in assay [8] was 4.83 µM (active); in assay [9], 15 µM (not active); in [10] it was > 80 µM (inactive).

`CN1c2ccc(N=[N+]=[N-])cc2Sc2cc(N=[N+]=[N-])ccc21`: on NADPH oxidase 1, the IC50 is 7.05 µM (active).

By AC50 is commonly meant the concentration at which the activity in the assay is half-maximal. For the compound `CCc1ccc(N=Nc2ccc(O)c3[nH]cnc23)cc1`, the concentration at half-maximal activity (AC50) in [11] was 0.996 µM (active). In addition, the concentration giving a half-maximal response (EC50) at Vasopressin V1a receptor and on Oxytocin receptor was > 29.9 µM (not active) throughout.

Consider `COc1cc(S(=O)(=O)NC2CCCCC2)c(C)cc1C`, for which the IC50 in assay [12] was > 109 µM (inactive); in assay [13], > 83.3 µM (inactive).

In the case of `CCOC(=O)C(/C=N/c1cc(C)nn1-c1ccc(Cl)cc1)=C(\O)OCC`, the results for the IC50 in assay [14] and in [15] were 18.9 µM (not active) and 30.6 µM (not active), respectively.

With `CC(C)c1ccc2[nH]c(O)c(N=NC(=O)c3ccc(CSc4nncn4C)cc3)c2c1`, the IC50 in assay [16] is > 100 µM (active).

A word on the CC50: it is the concentration that lowers cell viability or growth by half. As to `CC1=NN(c2nc(-c3ccc(C)cc3)cs2)C(=O)C1N=Nc1ccc(C(N)=O)cc1` (stereo not given), in the assay with INS1, the concentration at half-maximal activity (AC50) was 2.53 µM (active). In addition, the half-maximal cytotoxic concentration (CC50) with Vero was 6.04 µM (active).

As to `O=C(Nc1cccc(-c2nc3cc(Cl)ccc3o2)c1)C1CCCO1` (stereo not given), the EC50 in assay [17] is 2.58 µM (active).

As to `CN1CCN2c3ccccc3Cc3ccccc3C2C1` (stereo not given) [MIANSERIN], the IC50 in [18] is > 11.1 µM (inactive).

In assay [19], `Cn1c(NC(=O)c2ccccc2)nc2c(F)cccc21` had an AbsAC90 of 160.65 µM.

With `Cc1cc(NC(=O)/C=C/c2ccccc2)c(C(C)C)cc1O`, the IC50 in assay [20] is > 25 µM (inactive); in assay [21] it was > 25 µM (inactive); in [22] it was > 49.8 µM (not active); in assay [23], 0.852 µM (active); in assay [24] it was > 25 µM (inactive); in [25], 0.338 µM (active). The IC50 in [26] was > 25 µM (inactive).

Regarding `CCn1c2ccc(Cl)cc2c2nc3ccccc3nc21`, on Ephrin type-A receptor 4, the IC50 is 18.2 µM (active).

On to `Cc1ccc(Nc2nnc(SCC(=O)c3cc4ccccc4o3)s2)cc1C`, for which the IC50 is 0.64 µM (active) in assay [27] and 19.8 µM (active) on Leucine aminopeptidase.

Regarding `Cc1nn(C)c(C(=O)N2CCc3ccccc32)c1Br`, the EC50 at Transthyretin is > 167 µM (inactive).
